In PubChem BioAssay AID434932 (The Scripps Research Institute Molecular Screening Center, 2010):
Calls of active or inactive are those of the source.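 How the source made its calls: active means STAT1 activated, EC50 at most 10 µM; inactive means Over 10 µM EC50.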

These compounds were tested on NIH 3T3 STAT1-luciferase reporter, IFN-gamma, luminescence (assay: STAT1 reporter activators in fibroblasts, late-stage follow-up, cell-based, luminescence, NIH 3T3, dose response, powders (AID 434932)).
For `CCOC(=O)/C(C#N)=C/c1cc(C)n(-c2ccccc2)c1C`, the EC50 was 3.31 µM.
In the case of `CC(=O)NC(=S)Nc1sc2c(c1C#N)CCCCC2`, the EC50 is reported as > 55.7 µM (inactive).
Work on `Cc1cc(-c2ccc(F)cc2)n2ncc(-c3ccccc3)c2n1` yielded an EC50 of 0.0643 µM.
`COc1ccc(-c2cc(C)nc3c(-c4ccccc4)cnn23)cc1` showed an EC50 of 4.04 µM.
`CCN(CC)c1ccc2cc(C(=O)Nc3ccccn3)c(=O)oc2c1` was tested, and the EC50 was 10 µM (inactive).
For `O=C(Nc1nc2ccccc2s1)c1cc2ccccc2s1`, the EC50 was 0.835 µM.
In the case of `Cc1nnc(SCC(=O)Nc2ccc(-c3nc4ccccc4s3)cc2)s1`, the EC50 is reported as > 55.7 µM (inactive).
`COc1ccc(-c2csc(N3C(=O)CNC3=S)n2)cc1` showed an EC50 of 2.01 µM.
With `O=C(/C=C/Nc1ccccc1F)c1ccc(Br)cc1` the EC50 was > 55.7 µM (inactive).
`COc1ccc2[nH]c3c(c2c1)CCn1c-3nc2ccccc2c1=O` was tested, and the EC50 was < 0.00283 µM.
